Results as given in US6342501B1, “Pyrrolo[2,3-d] pyrimidines as antiviral agents” (The Regents of the University of Michigan, priority 1994, dated 2002).
Like-named read-outs stand apart in the source and are kept apart here.

Legend:
[1] = test system: herpes simplex virus type 1 (HSV-1); test: HSV-1 ELISA in BSC-1 cells; type: cell-based, KOS strain; conditions: read-out: HSV-1
Description: (§1) The routine growth and passage of KB and BSC-1 cells was performed in monolayer cultures using minimal essential medium (MEM) with either Hanks salts [MEM(H)] or Earle salts [MEM(E)] supplemented with 10% calf serum. The sodium bicarbonate concentration was varied to meet the buffering capacity required. Cultures of diploid human foreskin fibroblast (HFF) or MRC-5 cells were grown in medium consisting of MEM(E) with 10% fetal bovine serum. Cells were passaged at 1:2 to 1:10 dilutions according to conventional procedures by using 0.05% trypsin plus 0.02% EDTA in a HEPES buffered salt solution (HBS) [Shipman, C., Jr., Proc. Soc. […] HFF and MRC-5 cells were passaged only at 1:2 dilutions. The Towne strain, plaque-purified isolate Po, of HCMV was kindly provided by Dr. Mark Stinski, University of Iowa. The KOS strain of HSV-1 was used in most experiments and was provided by Dr. Sandra K. Weller, University of Conn.
High titer HSV-1 stocks were prepared by infecting BSC cells at an m.o.i. of <0.1 as detailed previously [Turk, S. R., et al., Antimicrob.
Ninety-six-well cluster dishes were planted with 10,000 BSC-1 cells per well in 200 μL per well of MEM(E) plus 10% calf serum. After overnight incubation at 37° C., selected drug concentrations in quadruplicate and HSV-1 at a concentration of 100 p.f.u./well were added. Following a 3-day incubation at 37° C., medium was removed, plates were blocked, rinsed, and horse radish peroxidase conjugated rabbit anti-HSV-1 antibody was added. Following removal of the antibody containing solution, plates were rinsed, and then developed by adding 150 μL per well of a solution of tetramethylbenzidine as substrate. The reaction was stopped with H2SO4 and absorbance was read at 450 and 570 nm. Drug effects were calculated as a percentage of the reduction in absorbance in the presence of each drug concentration compared to absorbance obtained with virus in the absence of drug.
(§2) Dose-response relationships were constructed by linearly regressing the percent inhibition of parameters derived in the preceding sections against logarithm 10 drug concentrations. […] Samples containing positive controls (acyclovir for HSV-1 and ganciclovir for HCMV) were used in all assays.

[2] = test system: human foreskin fibroblasts (HFF cells); test: Cytotoxicity in stationary HFF cells (microscopic inspection of plaque assay cells); type: cell-based; conditions: read-out: HFF
Description: (§3) Two different assays were used to explore cytotoxicity of selected compounds: (i) Cytotoxicity produced in stationary HFF cells was determined by microscopic inspection of cells used in plaque assays which were not affected by the virus [Turk, S. R., et al, Antimicrob.
as §2

[3] = test system: human cytomegalovirus (HCMV); test: microbe, parasite or virus in culture; type: cell-based, Towne strain; conditions: for IC50: Human betaherpesvirus 5, HFF, read-out: HCMV; for antiviral activity against HCMV (in words): comment on Table 1 data
Description: as §1
Stock HCMV was prepared by infecting HFF cells at a multiplicity of infection (m.o.i.) of <0.01 plaque-forming units (p.f.u.) per cell. Cell growth medium was changed every four days until cytopathology was evident in all cells (approximately 21 days). Supernatant fluids were retained as the virus stock.
Virus titers were determined using monolayer cultures of HFF cells for HCMV and monolayer cultures of BSC-1 cells for HSV-1 as described earlier [Prichard, M. N., et al., J. Virol. […] Briefly, HFF or BSC-1 cells were planted as described above in 96-well cluster dishes and incubated overnight at 37. degree. C. in a humidified 3% C02 -97% air atmosphere. The next day cultures were inoculated with HCMV or HSV-1 and serially diluted 1:3 across the remaining eleven columns of the 96-well plate. Cultures were incubated at 37. degree. C. for 2 hr to permit virus adsorption and then virus inoculum was replaced with 0.2 ml of fresh medium. Cultures were incubated for seven days for HCMV, two or three days for HSV-1, the medium was removed, and the cell sheets were stained with 0.1% crystal violet in 20% methanol.
HFF cells in 24-well cluster dishes were infected with approximately 100 p.f.u. of HCMV per cm^2 cell sheet using the procedures detailed above. Following virus adsorption, compounds dissolved in growth medium were added to duplicate wells in four to eight selected concentrations. After incubation at 37° C. for 7 to 10 days, cell sheets were fixed, stained with crystal violet and microscopic plaques enumerated as described above.
After virus adsorption, inoculum was replaced with 0.2 mL of fresh medium containing test compounds. The first row of 12 wells was left undisturbed and served as virus controls. Each well in the second row received an additional 0.1 mL of medium with test compound at three times the desired final concentration. The contents of the 12 wells were mixed by repeated pipetting and then serially diluted 1:3 along the remaining wells. In this manner, six compounds could be tested in duplicate on a single plate with concentrations from […]. Plates were incubated at 37° C. for seven days, subjected to one cycle of freezing and thawing; aliquots from each of the eight wells of a given column were transferred to the first column of a fresh 96-well monolayer culture of HFF cells. Contents were mixed and serially diluted 1:3 across the remaining eleven columns of the secondary plate. Each column of the original primary plate was diluted across a separate plate in this manner. Cultures were incubated, plaques were enumerated, and titers calculated as described above.
as §2

KB cells = test: Cytotoxicity: KB cell growth (crystal violet staining); type: cell-based; conditions: Homo sapiens, read-out: KBgrv
Description: as §3
Briefly, 96-well cluster dishes were planted with KB cells at 3000-5000 cells per well. After overnight incubation at 37° C., test compound was added in quadruplicate at six to eight concentrations. Plates were incubated at 37° C for 48 hours in a CO2 incubator, rinsed, fixed with 95% ethanol, and stained with 0.1% crystal violet. Acidified ethanol was added and plates read at 570 nm in a spectrophotometer designed to read 96-well ELISA assay plates.
as §2

[4] = Human alphaherpesvirus 1, BSC-1, 72 h
[5] = Human alphaherpesvirus 1, 72 h, Table 1, fifty-percent inhibitory concentration, ELISA, BSC-1 cells, 3-day incubation
[6] = Table 1, cytotoxicity, stationary HFF cells, visual
[7] = Table 1, cytotoxicity, KB cell growth, 48 hours

| SMILES | IC50 [1, 4] | IC50 ([2]; HFF) | IC50 [3] | IC50 (KB cells; KB, 48 h) | antiviral activity against HCMV (in words) [3] | IC50 [1, 5] | IC50 [2, 6] | IC50 (KB cells; [7]) |
| --- | --- | --- | --- | --- | --- | --- | --- | --- |
| NC(=O)c1cn(Cc2ccccc2)c2ncnc(N)c12 [Compound 659, 4-amino-7-benzyl-pyrrolo[2,3-d]pyrimidine-5-carboxamide] | 32.6 µM | 118 µM | 171 µM | 75 µM |  |  |  |  |
| NC(=O)c1cn(Cc2ccc(F)cc2)c2ncnc(N)c12 [Compound 1419, 4-amino-7-(4-fluorobenzyl)-pyrrolo[2,3-d]pyrimidine-5-carboxamide] | 16 µM | 100 µM | 4.2 µM | 50 µM | good to excellent antiviral activity |  |  |  |
| N#Cc1c(N)n(CC=Cc2ccccc2)c2ncnc(N)c12 [Compound 1329, 4,6-diamino-7-(3-phenyl)prop-2-enyl-pyrrolo[2,3-d]pyrimidine-5-carbonitrile] |  |  | 19 µM |  |  | 40 µM | 46 µM | 33 µM |
| N#Cc1cn(CCCc2ccccc2)c2ncnc(N)c12 [Compound 1362, 4-amino-7-(3-phenyl)propyl-pyrrolo[2,3-d]pyrimidine-5-carbonitrile] |  |  | > 10 µM |  |  | > 100 µM | > 10 µM | > 100 µM |
| N#Cc1c(N)n(Cc2ccc(F)cc2)c2ncnc(N)c12 [Compound 1365, 4,6-diamino-7-(4-flourobenzyl)-pyrrolo[2,3-d]pyrimidine-5-carbonitrile] |  |  | 0.3 µM |  | good to excellent antiviral activity | 33 µM | > 100 µM | 60 µM |
| NC(=S)c1cn(CCc2ccccc2)c2ncnc(N)c12 [Compound 1446, 4-amino-7-(2-phenyl)ethyl-pyrrolo[2,3-d]pyrimidine-5-thiocarboxamide] |  |  | > 1 µM |  | excellent activity | 0.65 µM | 100 µM | 10 µM |
| CC(C)(C)c1ccc(Cn2cc(C(N)=O)c3c(N)ncnc32)cc1 [Compound 845, 4-amino-7-(4-t-butylbenzyl)-pyrrolo[2,3-d]pyrimidine-5-carboxamide] | 50 µM | 100 µM | 28 µM | 1 µM |  |  |  |  |
| CC(c1ccccc1)n1cc(C#N)c2c(N)ncnc21 (stereo not shown) [Compound 1414, 4-amino-7-((2-phenyl)eth-2-yl)-pyrrolo[2,3-d]pyrimidine-5-carbonitrile] |  |  | 17 µM |  |  | 45 µM | > 120 µM | 20 µM |
| N#Cc1c(N)n(CCCc2ccccc2)c2ncnc(N)c12 [Compound 1350, 4,6-diamino-7-(3-phenyl)propyl-pyrrolo[2,3-d]pyrimidine-5-carbonitrile] |  |  | 5 µM |  | excellent activity | 121 µM | > 100 µM | 50 µM |
| N#Cc1c(Br)n(Cc2ccc(Cl)cc2)c2ncnc(N)c12 [Compound 1388, 4-amino-6-bromo-7-(4-chlorobenzyl)-pyrrolo[2,3-d]pyrimidine-5-carbonitrile] |  |  | 116 µM |  |  | > 100 µM | 116 µM | > 100 µM |
| N#Cc1c(N)n(Cc2ccc(Cl)cc2)c2ncnc(N)c12 [Compound 1356, 4,6-diamino-7-(4-chlorobenzyl)-pyrrolo[2,3-d]pyrimidine-5-carbonitrile] |  |  | 0.2 µM |  | good to excellent antiviral activity | 17 µM | 46 µM | 76 µM |
| Cc1ccc(Cn2c(Br)c(C#N)c3c(=O)[nH]cnc32)cc1 [Compound 1441, 4-oxo-6-bromo-7-(4-methylbenzyl)-pyrrolo[2,3-d]pyrimidine-5-carbonitrile] |  |  | 21 µM |  |  | 90 µM | 100 µM | 16 µM |
| N#Cc1c(Br)n(CC=Cc2ccccc2)c2ncnc(N)c12 [Compound 1361, 4-amino-6-bromo-7-(3-phenyl)prop-2-enyl-pyrrolo[2,3-d]pyrimidine-5-carbonitrile] |  |  | > 100 µM |  |  | > 100 µM | > 100 µM | > 100 µM |
| CNc1ncnc2c1c(C#N)c(Br)n2CCc1ccccc1 [Compound 1463, 4-methylamino-6-bromo-7-(2-phenyl)ethyl-pyrrolo[2,3-d]pyrimidine-5-carbonitrile] |  |  | > 10 µM |  |  |  | > 10 µM |  |
| N#Cc1cn(Cc2cccc([N+](=O)[O-])c2)c2ncnc(N)c12 [Compound 1382, 4-amino-7-(3-nitrobenzyl)-pyrrolo[2,3-d]pyrimidine-5-carbonitrile] |  |  | > 10 µM |  |  | > 100 µM | > 10 µM | > 100 µM |
| N#Cc1cn(Cc2ccc(F)cc2)c2ncnc(N)c12 [Compound 1429, 4-amino-7-(4-fluorobenzyl)-pyrrolo[2,3-d]pyrimidine-5-carbonitrile] |  |  | 1.8 µM |  | good to excellent antiviral activity | 33 µM | > 100 µM | 60 µM |
| Cc1cccc(Cn2cc(C(N)=O)c3c(N)ncnc32)c1 [Compound 826, 4-amino-7-(3-methylbenzyl)-pyrrolo[2,3-d]pyrimidine-5-carboxamide] | > 100 µM | ≥ 222 µM | ≥ 222 µM | ≥ 222 µM |  |  |  |  |
| CC(c1ccccc1)n1cc(C(N)=O)c2c(N)ncnc21 (stereo not shown) [Compound 1428, 4-amino-7-((2-phenyl)-eth-2-yl)-pyrrolo[2,3-d]pyrimidine-5-carboxamide] | 50 µM | 45 µM | 38 µM | 20 µM | good to excellent antiviral activity |  |  |  |
| Cc1ccccc1Cn1cc(C(N)=O)c2c(N)ncnc21 [Compound 636, 4-amino-7-(2-methylbenzyl)-pyrrolo[2,3-d]pyrimidine-5-carboxamide] | > 100 µM | 100 µM | 14.5 µM | ≥ 222 µM |  |  |  |  |
| NC(=O)c1c(Br)n(Cc2ccc(Cl)cc2)c2ncnc(N)c12 [Compound 1443, 4-amino-6-bromo-7-(4-chlorobenzyl)-pyrrolo[2,3-d]pyrimidine-5-carboxamide] | > 100 µM | > 10 µM | > 10 µM | > 100 µM |  |  |  |  |
